How the values were obtained:
[1] = Addition of flavor active peptide to unflavored cheese sauce, evaluation of imparted flavor; settings: 0.015% (w/w based) peptide added to unflavored cheese sauce of Table 1
Protocol: Addition of the Gly-Pro-Phe-Pro-Ile (SEQ ID NO:2) peptide to the unflavored cheese sauce listed in Table 1 was carried out to evaluate the flavor imparted by the flavor active peptide. The cheese sauce formulation can be described as having a mild, Monterey Jack cheese sauce flavor with some salty and savory notes.

[2] = Addition of flavor active peptide to seasoned microwave popcorn, evaluation of imparted flavor; settings: approximately 0.1% peptide in popped microwave popcorn with White Cheddar Snack Seasoning (Table 3)
Protocol: Addition of the Gly-Pro-Phe-Pro-Ile (SEQ ID NO:2) peptide to the base microwave popcorn listed in Table 2 was carried out to evaluate the flavor imparted by the flavor active peptide.
The sodium content of the resulting seasoned popcorn was 596.6 mg Na^+/1 oz serving.

Substance: Gly-Pro-Phe-Pro-Ile (GPFPI) [Gly-Pro-Phe-Pro-Ile (SEQ ID NO:2)]
- flavor imparted by the flavor active peptide [1]: made the sauce taste more salty, creamy and dairy
- flavor imparted by the flavor active peptide [2]: imparted an increase in cheesyness, mouthfeel, and some umami character

Reference: patent publication US9167837B2, “Peptides imparting umami, salt, dairy and bitter flavor” (International Flavors & Fragrances Inc., priority 2007, dated 2015)
